The results in this text go back to patent US12570609B2, “Tricyclic sulfones as ROR gamma modulators” (BRISTOL-MYERS SQUIBB COMPANY, priority 2020, dated 2026).

Common to all, as to assay type: cell-based
Data set [1] deals with T1, human sodium channel gene SCN5A ion channel (Homo sapiens, UniProt Q14524).
T1 construct: expressed in transfected cells
Nature of the data set: Patch clamp assay for sodium channel recording. The note with it: HEK 293 cells expressing SCN5A. In general terms: Patch clamp records ionic current or voltage across a cell membrane.
Text: All results are reported as mean±SEM. DMSO was used as a vehicle, with the final concentration of DMSO not exceeding 0.1%.
Membrane current recordings were made with a Multiclamp 700 series integrating patch-clamp amplifier (Axon Instruments, Foster City, California) using the whole-cell variant of the conventional patch-clamp technique. Cells expressing sodium SCN5A ion channels were placed in a plexiglass bath chamber, mounted on the stage of an inverted microscope, and perfused continuously with bath solution.
The sodium current bath solution, contained (in mM): 140 NaCl, 4 KCl, 1.8 CaCl2, 1 MgCl2, 10 glucose, 10 HEPES (pH 7.4, NaOH). […]
For determining steady state inhibition, sodium currents were elicited every 5 seconds (0.2 Hz) using the following voltage protocol. […] The peak sodium current in response to the depolarizing step to −20 mV was monitored in the control buffer and after application of test article until a new steady state in the presence of the test article was achieved. […] Rate dependent inhibition was calculated by comparing the average of the last 3 sweeps of 30 voltage sweeps in presence of test article to the average of the last 3 sweeps of 30 voltage sweeps under control conditions at each frequency tested.
Currents were sampled at rates at least 2 times the low pass filter rate. […] All currents were recorded at room temperature ˜25° C.

The subject of another data set is IL17A. Nature of the data set: Human whole blood assay (IL17A content, AlphaLISA). The note with it: compared with Compound A. For orientation: Alpha assays give light when donor and acceptor beads are brought close together.
A further data set concerns the target T2, RORγ (Homo sapiens, UniProt P51449).
T2 construct: Jurkat pEx/Gal/hRORγCLBD/HYG pG5luc/blast; expressed in transfected cells
T2 sequence (P51449 269-508 limits assumed): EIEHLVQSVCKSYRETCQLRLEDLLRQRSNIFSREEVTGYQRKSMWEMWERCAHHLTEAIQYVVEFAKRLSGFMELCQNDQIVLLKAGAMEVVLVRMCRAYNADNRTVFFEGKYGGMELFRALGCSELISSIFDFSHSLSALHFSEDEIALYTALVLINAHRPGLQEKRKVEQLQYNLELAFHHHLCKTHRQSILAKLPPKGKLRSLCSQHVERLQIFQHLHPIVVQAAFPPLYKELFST
Kind of data set: RORγ Gal4 reporter assay (Gal4-luciferase, Jurkat cells). The note with it: Jurkat cells over-expressing RORγ, overnight incubation. How it is done:
General RORγ Gal4 Reporter Assay
Inverse agonist activity of potential ligands to RORγ was measured by inhibition of luminescence in a Gal4-luciferase reporter assay in Jurkat cells.
The following day, cells were lysed with 10 μL of Steady-Glo Luciferase Assay System (Promega Cat. No. EZ550), and analyzed immediately. IC50 values were determined.

Each structure is given as a SMILES string.

T1 sequence (Q14524 whole entry): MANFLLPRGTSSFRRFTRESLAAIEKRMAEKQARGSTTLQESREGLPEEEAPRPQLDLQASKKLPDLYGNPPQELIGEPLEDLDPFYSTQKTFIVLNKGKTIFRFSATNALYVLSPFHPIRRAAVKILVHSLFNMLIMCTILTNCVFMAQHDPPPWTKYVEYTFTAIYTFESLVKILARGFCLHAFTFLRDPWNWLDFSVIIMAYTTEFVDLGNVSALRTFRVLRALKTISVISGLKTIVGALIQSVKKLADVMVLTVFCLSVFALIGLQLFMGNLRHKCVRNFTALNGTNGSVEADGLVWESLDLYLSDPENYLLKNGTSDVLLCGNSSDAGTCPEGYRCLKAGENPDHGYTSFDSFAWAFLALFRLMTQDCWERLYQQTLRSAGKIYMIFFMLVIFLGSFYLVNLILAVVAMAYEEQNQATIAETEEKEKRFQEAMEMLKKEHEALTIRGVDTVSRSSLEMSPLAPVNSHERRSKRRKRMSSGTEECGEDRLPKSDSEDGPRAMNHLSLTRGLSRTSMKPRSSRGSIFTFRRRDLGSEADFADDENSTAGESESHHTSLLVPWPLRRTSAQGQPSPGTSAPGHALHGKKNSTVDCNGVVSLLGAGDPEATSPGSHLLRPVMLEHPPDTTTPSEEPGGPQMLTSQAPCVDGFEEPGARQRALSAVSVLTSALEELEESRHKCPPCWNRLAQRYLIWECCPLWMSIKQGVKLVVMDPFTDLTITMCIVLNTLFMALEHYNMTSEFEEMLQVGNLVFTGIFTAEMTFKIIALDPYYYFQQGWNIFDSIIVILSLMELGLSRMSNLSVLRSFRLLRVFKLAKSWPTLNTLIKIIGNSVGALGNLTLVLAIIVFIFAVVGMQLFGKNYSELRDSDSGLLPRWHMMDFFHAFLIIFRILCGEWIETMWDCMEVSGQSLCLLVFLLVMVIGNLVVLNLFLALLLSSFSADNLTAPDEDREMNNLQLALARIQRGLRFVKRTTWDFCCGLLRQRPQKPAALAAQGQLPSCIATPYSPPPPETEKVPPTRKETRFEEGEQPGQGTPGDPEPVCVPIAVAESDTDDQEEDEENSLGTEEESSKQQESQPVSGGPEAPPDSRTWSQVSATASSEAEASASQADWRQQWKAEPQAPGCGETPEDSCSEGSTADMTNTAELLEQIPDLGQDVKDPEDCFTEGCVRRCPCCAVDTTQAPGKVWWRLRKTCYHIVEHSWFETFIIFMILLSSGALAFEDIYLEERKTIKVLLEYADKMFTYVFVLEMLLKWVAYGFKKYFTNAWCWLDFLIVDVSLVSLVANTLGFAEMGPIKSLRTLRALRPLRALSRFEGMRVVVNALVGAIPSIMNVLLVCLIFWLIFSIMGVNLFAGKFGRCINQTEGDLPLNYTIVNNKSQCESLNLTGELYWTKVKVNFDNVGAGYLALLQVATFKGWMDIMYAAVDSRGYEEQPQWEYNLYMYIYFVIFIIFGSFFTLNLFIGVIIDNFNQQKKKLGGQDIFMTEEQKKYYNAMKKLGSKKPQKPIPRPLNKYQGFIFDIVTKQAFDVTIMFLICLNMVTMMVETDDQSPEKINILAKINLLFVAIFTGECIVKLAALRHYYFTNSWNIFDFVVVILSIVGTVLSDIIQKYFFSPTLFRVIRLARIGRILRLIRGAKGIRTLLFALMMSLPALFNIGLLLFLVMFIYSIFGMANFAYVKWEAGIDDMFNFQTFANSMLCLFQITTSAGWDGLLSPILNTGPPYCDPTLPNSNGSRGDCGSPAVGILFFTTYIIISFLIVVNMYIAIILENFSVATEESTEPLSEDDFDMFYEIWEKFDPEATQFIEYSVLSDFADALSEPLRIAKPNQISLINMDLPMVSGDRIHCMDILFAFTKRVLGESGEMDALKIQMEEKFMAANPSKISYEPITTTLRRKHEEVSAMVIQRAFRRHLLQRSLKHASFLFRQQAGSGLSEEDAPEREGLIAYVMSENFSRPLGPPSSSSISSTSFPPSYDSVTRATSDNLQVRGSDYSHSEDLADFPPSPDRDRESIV
Experimental for IL17A: The compounds were diluted in dimethyl sulfoxide (DMSO) and were transferred to individual wells of a Matrix Technologies clear, V-bottom 384-well plate using the ECHO acoustic liquid handling technology (60 nL per well). Human whole blood samples (30 μL) were added to each well using a CyBio FeliX liquid handling instrument and the plate was shaken on a plate shaker for 3 min, incubating at 37° C. for 1 h. Wells were then treated with CD3+CD28 with a final concentration of 1 μg/mL, 30 μL per well in an AIM-V medium, the plate was shaken on a plate shaker for 3 min before incubating the reaction mixtures at 37° C. for 20 h. Plasma was liberated from each sample by centrifugation (450 g, 5 min, ambient temperature).

As to `C[C@@](O)(CS(C)(=O)=O)C(=O)N[C@@H]1CC[C@@]2(S(=O)(=O)c3ccc(F)cc3)c3ccc(C(F)(C(F)(F)F)C(F)(F)F)nc3CC[C@@H]12` [Example 1, (S)—N-((6aS,7R,9aS)-9a-((4-fluorophenyl)sulfonyl)-3-(perfluoropropan-2-yl)-6,6a,7,8,9,9a-hexahydro-5H-cyclopenta[f]quinolin-7-yl)-2-hydroxy-2-methyl-3-(methylsulfonyl)propanamide], in data set [1], the “activity in the Na channel assay (in words)” value was “essentially inactive”. Moreover, in data set [1] (whole-cell patch clamp, read-out: Na Channel), the IC50 is greater than 30000 nM. The “potency in the human whole blood assay relative to Compound A” value in the data set with IL17A is reported as “twice as potent”.
`CC(C)(O)CC(=O)N[C@@H]1CC[C@@]2(S(=O)(=O)c3ccc(F)cc3)c3ccc(C(F)(C(F)(F)F)C(F)(F)F)nc3CC[C@@H]12` [Example 2] returned an IC50 at RORγ of 6 nM.
On RORγ, `O=C(N[C@@H]1CC[C@@]2(S(=O)(=O)c3ccc(F)cc3)c3ccc(C(F)(C(F)(F)F)C(F)(F)F)nc3CC[C@@H]12)C1CCS(=O)(=O)CC1` [Example 3] registered an IC50 of 8.4 nM.
Regarding `CC(C)(O)C(=O)N[C@@H]1CC[C@@]2(S(=O)(=O)c3ccc(F)cc3)c3ccc(C(F)(C(F)(F)F)C(F)(F)F)nc3CC[C@@H]12` [Example 4], the IC50 against RORγ worked out at 3.9 nM.
Same read-out and setting: the same measure for `O=C(O)C1CC2(C1)CC(C(=O)N[C@@H]1CC[C@@]3(S(=O)(=O)c4ccc(F)cc4)c4ccc(C(F)(C(F)(F)F)C(F)(F)F)nc4CC[C@@H]13)C2` (stereo partly shown) [Example 6]: 7.9 nM.
